Reference: patent US20080188549A1, “Composition for Preventing and/or Treating Metabolic Syndrome and Insulin Resistance Syndrome” (Kaneka Corporation, priority 2005, published 2008)

Biological target: T1, PPARγ (Mus musculus, UniProt P37238)
T1 construct: GAL4 (yeast transcription factor, amino acids 1 to 147); expressed in transfected cells; host or cells: CV-1 cells (African green monkey kidney)
T1 sequence (P37238 174-475 isoform P37238-2): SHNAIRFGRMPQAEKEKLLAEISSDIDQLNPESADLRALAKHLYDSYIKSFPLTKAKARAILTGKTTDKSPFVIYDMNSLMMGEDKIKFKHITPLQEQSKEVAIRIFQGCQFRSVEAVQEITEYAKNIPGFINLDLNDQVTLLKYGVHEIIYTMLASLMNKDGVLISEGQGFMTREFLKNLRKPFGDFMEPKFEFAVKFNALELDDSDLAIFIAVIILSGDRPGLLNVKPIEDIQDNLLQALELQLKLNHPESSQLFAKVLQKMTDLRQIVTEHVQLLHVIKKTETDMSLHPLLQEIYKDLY
Experiment: PPARγ ligand activity measurement (GAL4-mPPARγ chimera luciferase reporter assay in CV-1 cells)
Assay type: cell-based
Conditions: for Specific activity (PPARγ ligand activity relative to no-treatment control): CV-1 cells, 24 hours, n=4, 1.5 or above = having PPARγ ligand activity; for PPARγ ligand activity comparison with troglitazone: compared with troglitazone at 0.5 μM, compounds at the concentrations of Table 2
Experimental: CV-1 cells (male African green monkey kidney-derived cultured cells) were distributed into wells of a 96-well culture plate (6×10^3 cells/well) and cultured under conditions of 37° C. and 5% CO2 for 24 hours. The medium used was DMEM (Dulbecco's modified Eagle medium; GIBCO) containing 10% FBS (fetal bovine serum), 10 ml/L of penicillin-streptomycin solution (5,000 IU/ml and 5,000 μg/ml, respectively; GIBCO) and 37 mg/L of ascorbic acid (Wako Pure Chemical Industries). After rinsing with OPTI-MEM (GIBCO), the cells were transfected with pM-mPPARγ and 4×UASg-luc using Lipofectamine Plus (GIBCO). […] Each sample in the assay group was dissolved in dimethyl sulfoxide (DMSO), and DMSO was used in the no-treatment control group. The solution or DMSO was added to the medium at a level of 1/1000. After washing the cells with Ca- and Mg-containing phosphate buffered saline (PBS^+), LucLite (Packard) was added to each well, and the luciferase-due luminescence intensity was measured using Packard's TopCount microplate scintillation/luminescence counter. Using pM (plasmid deprived of the PPARγ ligand binding site gene) in lieu of pM-mPPARγ, measurements in a control group were carried out in the same manner as in the above assay group. For each sample, the ratio in mean luminescence intensity (n=4) between the assay group and control group (assay group/control group ratio) was calculated, and the specific activity relative to the no-treatment control group was regarded as the PPARγ ligand activity of the sample. When the specific activity was 1.5 or above, the sample was evaluated as having PPARγ ligand activity.

Specific activity (PPARγ ligand activity relative to no-treatment control) (10 μg/ml) | Specific activity (PPARγ ligand activity relative to no-treatment control) (20 μg/ml) | Compound | PPARγ ligand activity comparison with troglitazone
3.62 | – | CC(C)=CCc1cc([C@@H]2CC(=O)c3ccc4c(c3O2)C=CC(C)(C)O4)ccc1O [Compound 2, shinflavanone] | stronger in PPARγ ligand activity as compared with troglitazone
– | 1.90 | COc1ccc(C2(O)COc3c(ccc4c3C=CC(C)(C)O4)C2=O)c(O)c1 (stereo not drawn) [Compound 3, 3,2′-dihydroxy-4′-methoxy-6″,6″-dimethylpyrano[2″,3″:7,8] isoflavanone] | stronger in PPARγ ligand activity as compared with troglitazone
3.58 | – | COc1c(/C=C/C(=O)c2cc(O)c(O)c(CC=C(C)C)c2)ccc(O)c1O [Compound 1, 3,4,3′,4′-tetrahydroxy-2-methoxy-5′-γ,γ-dimethylallylchalcone] | stronger in PPARγ ligand activity as compared with troglitazone
